From US6716858B1, “Methods for inhibiting diabetic complications” (Kansas University Medical Center, priority 1995, dated 2004)
Where two headings read alike, the source gives them in different places.

How the values were obtained:
[1] = system: Sprague-Dawley rats, glomerular changes; type: in vivo, rat; conditions: for effect of treatment on loss of Heparan Sulfate Proteoglycan side-chain staining (mAb JM-403): rats injected with Amadori-RSA or AGE-RSA (both cases); for microalbuminuria / albuminuria: rats receiving Amadori-RSA or AGE-RSA
Description: Male Sprague-Dawley rats (Sasco, 100 g) were used. After a 1 week adaptation period, rats were placed in metabolic cages to obtain a 24 hour urine specimen for 2 days before administration of injections. Rats were then divided into experimental and control groups and given tail vein injections with either saline, unmodified RSA (50 mg/kg), Amadori-RSA (50 mg/kg), NaBH4-reduced Amadori-RSA (50 mg/kg), or AGE-RSA (50 mg/kg).
Rats injected with Amadori-RSA and AGE-RSA were then either left untreated, or further treated by the administration of either aminoguanidine (AG; 25 mg/kg), pyridoxamine (PM; 25 mg/kg), or a combination of AG and PM (10 mg/kg each) through the drinking water. Body weight and water intake of the rats were monitored weekly in order to adjust dosages. At the conclusion of the experimental study the rats were placed in metabolic cages to obtain 24 hour urine specimen for 2 days prior to sacrificing the animals.
After perfusion with saline, kidney sections were fixed in ice-cold 10% neutral buffered formalin. Paraffin-embedded tissue sections from all rat groups (n=4 per group) were processed for staining with Harris' alum hematoxylin and eosin (H&E), perodic acid/Schiff reagent (PAS), and alcian blue (pH 1.0 and pH 2.5) stains for histological examination. The alcian blue sections were scored by two investigators in a blinded fashion.
Parrafin-embedded sections were deparaffinized and then blocked with 10% goat serum in PBS for 30 min at room temperature. […] The sections were then rinsed for 30 min with PBS in the dark, mounted in aqueous mounting media for immunocytochemistry (Biomeda), and cover slipped. Sections were scored in a blinded fashion. Kidney sections were evaluated by the number and intensity of glomerular staining in 5 regions around the periphery of the kidney. Scores were normalized for the immunofluorescent score per 100 glomeruli with a scoring system of 0-3.
All animals studies were carried out in conformance with institutional guidelines for animal research protocols. Male Sprague-Dawley 100 g rats (Sasco Co., Omaha Nebr.) were used in these studies. After a 1 week adaptation period, rats were placed in metabolic cages for 2 days to get two 24 hour urine specimens before starting treatment. Rats were then given daily single tail vein injections for 6 weeks according to the following treatment groups: saline, unmodified RSA (50 mg/kg), Amadori-RSA (50 mg/kg), NaBH4-reduced Amadori-RSA (50 mg/kg), and AGE-RSA (50 mg/kg). Groups of rats injected with Amadori-RSA or AGE-RSA were also administered aminoguanidine (25 mg/kg/day), pyridoxamine (25 mg/kg/day), a combination of the two (10 mg/kg/day each), or with nothing added to the drinking water. Body weight and water intake of the rat were monitored weekly in order to adjust dosages. At the conclusion of the study, the rats were placed in metabolic cages for two days to get two 24 hour urine specimens before sacrificing the animals.
Total protein in urine was determined by Bio-Rad assay. Albumin in urine was determined by competitive ELISA using rabbit anti-rat serum albumin (Cappell) as primary antibody (1:2000) and goat anti-rabbit IgG (Sigma) as a secondary antibody (1:2000). Urine was tested with Multistix 8 SG (Miles) for glucose, ketone, specific gravity, blood, pH, protein, nitrite and leukocytes. Creatinine measurements were performed with a Beckman creatinine analyzer II. Intracardiac blood samples were collected before termination and were used in the determination of creatinine clearance, blood glucose (glucose oxidase, Sigma), fructosamine (nitroblue tetrazolium, Sigma), and glycated Hb (Glycotest II analytical boronate columns, Pierce).
After perfusion with saline, kidney sections were fixed in ice-cold 10% neutral buffered formalin. […]

[2] = Metabolic conversions and bioavailability of pyridoxamine, plasma B6 vitamers by HPLC; type: in vivo, rat; conditions: 25 mg/kg/day pyridoxamine in drinking water, after 48 hours; n=4
Description: In addition to the glycated albumin studies, we carried out an investigation of the bioavailability of pyridoxamine when introduced through drinking water, and its possible redistribution into the vitamin B6 pool. Determination of the common B6 vitamers in plasma was carried out by HPLC methods as described below. Rats (n=4) were kept in standard cages as in the other experiments and were given pyridoxamine at 25 mg/kg/day for 48 hours, following which blood samples were withdrawn intra-cardially for serum analysis of the B6 vitamers. The concentrations were compared to endogenous B6 vitamer levels of control rats.
The procedures of Sampson and O° Connor (Nutrition Res. 9:259-272 (1989)) and Sharma and Dakshinamurti (Sampson and O° Connor J Nutr 119:1940-8, (1989) Sharma and Dakshinamurti, J Chromatogr 578:45-51, (1992)) were followed, using a Shimadzu HPLC with RF-551 fluorescence monitor. Excitation was at 328 nm and emission was followed at 393 nm. An Ultremex C18 guard column (30×4.6 mm, 5 micron particle size) (Phenomenex) preceded an Ultremex C18 ion-pair column (octadecylsilane, 150×4.6 mm, 3 micron particle size) (Phenomenex). Solvent A contained 0.033 M phosphoric acid and 0.008 M 1-octanesulfonic acid, adjusted to pH 2.2 with 6 N KOH. Solvent B contained 0.033 M phsophoric acid and 10% (v/v) 2-propanol, adjusted to pH 7.5 with 6 N KOH. […]

[3] = Amadori-RSA injected rats, 6 weeks
[4] = rats injected with Amadori-RSA or AGE-RSA
[5] = 6 weeks, n = 4, average with standard error

Row | Compound | effect of treatment on glomerular albumin cross-linking ([1]; AGE-RSA injected rats) | effect of treatment on glomerular volume (GV) ([1]; AGE-RSA injected rats, 6 weeks) | effect of treatment on HS loss ([1]; Amadori-RSA injected rats) | effect of treatment on glomerular volume (GV) [1, 3] | effect of treatment on elevated glomerular staining for RSA [1, 4] | effect of treatment on increase in average glomerular volume [1, 4] | Alcian Blue pH 1.0, scoring of glomerular staining (sulfated glycosaminoglycans) [1, 5] | Alcian Blue pH 2.5, scoring of glomerular staining (acidic glycosaminoglycans) [1, 5] | HS core protein (Ab BL-31), scoring of glomerular staining [1, 5] | effect of treatment on glomerular albumin cross-linking ([1]; Amadori-RSA injected rats) | Creat C-2wk ([1]; creatinine clearance at 2 weeks, n = 4) | Creat C-6wk ([1]; creatinine clearance at 6 weeks, n = 4) | effect of treatment on reduced Heparan Sulfate Proteoglycan Core protein staining [1, 4] | effect of treatment on loss of Heparan Sulfate Proteoglycan side-chain staining (mAb JM-403) [1] | effect of treatment on loss of Heparan Sulfate Proteoglycan side-chain staining (mAb JM-403) ([1]; listed as PM) | microalbuminuria / albuminuria ([1]; 6 weeks) | microalbuminuria / albuminuria ([1]; 6 weeks, listed as PM) | elevation of plasma pyridoxamine, steady state to endogenous level [2]
1 | N=C(N)NN [aminoguanidine, reference compound] | intermediate results but did not lead to statistically significant differences from either the controls or from the untreated subgroup | significant elevation in GV persisted | appeared to not prevent this loss | No statistically significant differences | not with AG | No effect | – | – | – | – | – | – | – | – | – | – | – | –
2 | Cc1ncc(CO)c(CN)c1O [pyridoxamine] | completely blocked | completely prevented | – | no significant changes from controls | Significant reduction of this effect | A significant reduction of this effect | 2.62 ± 0.24 | 1.56 ± 0.21 | 234 ± 8 | significantly lower cross-linking than Aminoguanidine | 0.66 ± 0.07 ml/(min*100g) | 0.66 ± 0.17 ml/(min*100g) | A reduction of this effect | completely prevented this loss | A significant reduction of this effect | very low intra-group scatter and to the lowest means | none was seen if PM was co-administered | approximately 300 fold
